Columns and labels:
[1] = biological target: Metallo-beta-lactamase type 2 (Bacteria, UniProt C7C422)
Description: Inhibition of C-terminal 6His-tagged full length NDM-1 (unknown origin) expressed in Escherichia coli BL21-DE3 using nitrocefin as substrate incubated for 15 mins followed by substrate addition by absorbance based microplate reader analysis

[2] = biological target: Histone deacetylase 1 (Homo sapiens) (UniProt Q13547); assay: Inhibition of C-terminal 6His/FLAG-tagged human recombinant full-length HDAC1 (1 to 482(end) residues) at 10 uM using Boc-Lys-(Ac)-AMC as substrate incubated for 10 mins followed by substrate addition measured after 1 hr by fluorescence based analysis relative to control; conditions: time 70.0 min
[3] = Inhibition of GIM1 (unknown origin) incubated for 15 mins by absorbance based microplate reader analysis; set-up: species or system Bacteria
[4] = biological target: Carbonic anhydrase 2 (Homo sapiens) (UniProt P00918); assay: Inhibition of human CA2 at 10 uM using pNPA as substrate preincubated for 15 mins followed by substrate by absorbance based analysis relative to control
[5] = Inhibition of IMP-1 (unknown origin) expressed in Escherichia coli BL21-DE3 incubated for 15 mins by absorbance based microplate reader analysis; set-up: species or system Bacteria
[6] = Inhibition of VIM-2 (unknown origin) incubated for 15 mins by absorbance based microplate reader analysis; set-up: species or system Bacteria
[7] = biological target: T1, 72 kDa type IV collagenase (Homo sapiens, UniProt P08253); assay: Inhibition of human recombinant MMP-2 CD at 10 uM using OMNIMMP as substrate incubated for 30 mins by fluorescence based analysis relative to control
Target sequence in this assay (P08253 110-660 limits assumed): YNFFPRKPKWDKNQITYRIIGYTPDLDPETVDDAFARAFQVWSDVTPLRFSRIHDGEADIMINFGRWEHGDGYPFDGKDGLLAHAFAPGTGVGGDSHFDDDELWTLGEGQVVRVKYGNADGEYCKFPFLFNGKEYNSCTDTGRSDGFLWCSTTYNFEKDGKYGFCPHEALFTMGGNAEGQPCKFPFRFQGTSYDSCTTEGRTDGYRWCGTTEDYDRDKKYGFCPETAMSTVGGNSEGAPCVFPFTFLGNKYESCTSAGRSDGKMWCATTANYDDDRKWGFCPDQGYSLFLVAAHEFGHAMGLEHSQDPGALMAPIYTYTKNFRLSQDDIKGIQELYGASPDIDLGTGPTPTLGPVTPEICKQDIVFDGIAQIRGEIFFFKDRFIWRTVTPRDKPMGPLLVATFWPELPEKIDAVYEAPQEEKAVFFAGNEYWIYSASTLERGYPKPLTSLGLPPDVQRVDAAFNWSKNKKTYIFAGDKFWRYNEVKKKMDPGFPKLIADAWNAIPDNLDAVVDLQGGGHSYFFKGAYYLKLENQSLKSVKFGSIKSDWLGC

[8] = Selectivity ratio of Ki for human recombinant MMP-2 CD to Ki for C-terminal 6His-tagged full length NDM-1 (unknown origin)
[9] = biological target: T1, 72 kDa type IV collagenase; assay: Binding affinity to human recombinant MMP-2 CD assessed as inhibition constant using OMNIMMP as substrate incubated for 30 mins by fluorescence based analysis
Target sequence in this assay (P08253 whole entry): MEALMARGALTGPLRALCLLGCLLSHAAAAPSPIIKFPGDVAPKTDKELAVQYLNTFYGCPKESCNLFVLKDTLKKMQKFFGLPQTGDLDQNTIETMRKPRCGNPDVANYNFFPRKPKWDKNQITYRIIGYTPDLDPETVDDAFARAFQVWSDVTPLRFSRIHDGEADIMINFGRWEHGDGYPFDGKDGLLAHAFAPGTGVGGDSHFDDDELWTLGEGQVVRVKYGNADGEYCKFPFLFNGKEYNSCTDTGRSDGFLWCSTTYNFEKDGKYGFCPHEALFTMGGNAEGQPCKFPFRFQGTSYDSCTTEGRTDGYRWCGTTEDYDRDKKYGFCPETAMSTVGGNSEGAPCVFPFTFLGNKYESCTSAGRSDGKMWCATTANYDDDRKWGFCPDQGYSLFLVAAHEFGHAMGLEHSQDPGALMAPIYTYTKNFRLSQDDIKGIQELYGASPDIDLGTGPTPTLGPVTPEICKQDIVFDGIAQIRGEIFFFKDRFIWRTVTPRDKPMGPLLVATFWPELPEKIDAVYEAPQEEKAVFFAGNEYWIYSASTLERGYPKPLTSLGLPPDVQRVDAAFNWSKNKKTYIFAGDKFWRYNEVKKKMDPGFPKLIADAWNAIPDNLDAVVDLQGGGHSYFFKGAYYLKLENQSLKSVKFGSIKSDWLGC

Metallo-beta-lactamase type 2, sequence (C7C422 whole entry): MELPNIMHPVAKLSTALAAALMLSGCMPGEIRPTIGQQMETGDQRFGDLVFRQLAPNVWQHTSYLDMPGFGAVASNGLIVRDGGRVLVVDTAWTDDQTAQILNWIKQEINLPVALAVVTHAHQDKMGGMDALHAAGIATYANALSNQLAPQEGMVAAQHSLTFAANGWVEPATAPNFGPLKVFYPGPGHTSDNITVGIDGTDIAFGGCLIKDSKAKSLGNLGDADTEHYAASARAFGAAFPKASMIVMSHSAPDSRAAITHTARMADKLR
Histone deacetylase 1 (Homo sapiens), sequence (Q13547 whole entry): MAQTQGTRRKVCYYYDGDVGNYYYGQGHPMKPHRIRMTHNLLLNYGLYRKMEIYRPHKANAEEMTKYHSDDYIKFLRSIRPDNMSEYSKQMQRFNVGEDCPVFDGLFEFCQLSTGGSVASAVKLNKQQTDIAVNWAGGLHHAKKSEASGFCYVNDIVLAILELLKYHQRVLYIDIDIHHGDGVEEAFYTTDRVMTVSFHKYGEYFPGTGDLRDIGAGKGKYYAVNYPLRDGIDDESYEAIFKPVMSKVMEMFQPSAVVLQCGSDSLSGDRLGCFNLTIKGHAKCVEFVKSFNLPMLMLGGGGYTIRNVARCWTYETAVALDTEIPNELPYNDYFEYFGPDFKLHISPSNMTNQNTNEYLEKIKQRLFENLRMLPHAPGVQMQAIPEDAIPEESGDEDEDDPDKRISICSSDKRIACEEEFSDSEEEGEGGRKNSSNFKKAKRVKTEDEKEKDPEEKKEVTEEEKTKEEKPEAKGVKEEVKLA

O=C(O)c1ccc2cccc(NS(=O)(=O)c3cccc(Cl)c3)c2n1
IC50 [1]: 0.5 µM

O=C(O)c1ccc2c(Cl)cc(Cl)c(O)c2n1
inhibition [2]: < 5%
IC50 [3]: 1.26 µM
inhibition [4]: < 5%
IC50 [5]: 0.48 µM
IC50 [6]: 0.16 µM
IC50 [1]: 0.54 µM
inhibition [7]: 20%

COC(=O)c1ccc2cccc(NS(=O)(=O)c3cccc(F)c3)c2n1
IC50 [1]: 1.7 µM

Nc1cccc(-c2cc(C(=O)O)nc3c(NS(=O)(=O)c4ccccn4)cccc23)c1
IC50 [1]: 0.25 µM

C[C@H](CS)C(=O)N1CCC[C@H]1C(=O)O
inhibition [2]: < 5%
inhibition [4]: < 5%
inhibition [7]: < 5%

O=C(O)c1ccc2cccc(NS(=O)(=O)C(F)(F)F)c2n1
IC50 [1]: 0.9 µM

O=C(O)c1ccc2cccc(O)c2n1
inhibition [2]: < 5%
IC50 [3]: 7.38 µM
inhibition [4]: < 5%
IC50 [5]: 10.3 µM
IC50 [6]: 0.61 µM
IC50 [1]: 9.1 µM
inhibition [7]: < 5%

O=C(NOCc1ccccc1)c1cccc(C(=O)NOCc2ccccc2)n1
inhibition [2]: < 5%
inhibition [4]: < 5%
IC50 [5]: 102 µM
IC50 [1]: 7.2 µM
inhibition [7]: < 5%

O=C(O)c1ccc2cccc(NS(=O)(=O)Cc3ccccc3)c2n1
IC50 [1]: 1.28 µM

O=S(=O)(Nc1cccc2cccnc12)c1cccc(F)c1
IC50 [1]: 6.2 µM

O=C(O)c1ccc2c(Br)cc(Br)c(O)c2n1
IC50 [1]: 0.46 µM

O=C(O)c1ccc2c(Cl)c(Cl)cc(NS(=O)(=O)c3ccccn3)c2n1
IC50 [1]: 0.52 µM

Cc1ccc2cccc(NS(=O)(=O)c3ccccc3)c2n1
IC50 [1]: 1.6 µM

Oc1c(I)cc(I)c2cccnc12 [IODOQUINOL]
IC50 [1]: 2.5 µM

O=C(O)c1ccc2c(I)cc(I)c(O)c2n1
inhibition [2]: < 5%
inhibition [4]: < 5%
IC50 [1]: 0.3 µM
inhibition [7]: 5%

O=C(O)c1ccc2ccc3c(c2n1)NS(=O)(=O)c1ccc(C(F)(F)F)cc1-3
inhibition [2]: < 5%
inhibition [4]: < 5%
Ratio Ki [8]: 135
Ki [9]: 27.6 µM
IC50 [1]: 0.41 µM
inhibition [7]: > 90%

O=C(O)c1ccc2cccc(NS(=O)(=O)c3cccc([N+](=O)[O-])c3)c2n1
IC50 [1]: 0.56 µM

O=C(O)c1ccc2c(Cl)ccc(NS(=O)(=O)c3ccccn3)c2n1
IC50 [1]: 0.29 µM

O=C(O)c1ccc2cccc(NS(=O)(=O)c3ccc(Cl)cc3)c2n1
IC50 [1]: 0.45 µM

CON(C)C(=O)c1ccccn1
IC50 [1]: > 2000 µM

Cc1ccc2cccc(O)c2n1 [8-HYDROXY QUINALDINE]
IC50 [1]: 274 µM

O=C(NOCc1ccccc1)c1ccccn1
IC50 [1]: 530 µM

O=C(O)c1cc(Cl)c2cccc(NS(=O)(=O)c3ccccn3)c2n1
IC50 [1]: 0.28 µM

Cc1ccc2cccc(NS(=O)(=O)c3cccc(F)c3)c2n1
IC50 [1]: 1.4 µM

CS(=O)(=O)Nc1cccc2c(-c3cccc(N)c3)cc(C(=O)O)nc12
IC50 [1]: 0.71 µM

O=C(NOCc1ccccc1)c1ccc2c(Br)cc(Br)c(O)c2n1
IC50 [1]: 1.47 µM

O=C(O)c1ccc2cccc(NS(=O)(=O)c3c(Cl)cc(Cl)cc3Cl)c2n1
IC50 [1]: 0.44 µM

O=C(O)c1ccc2cccc(NS(=O)(=O)c3ccccc3Cl)c2n1
IC50 [1]: 0.44 µM

COC(=O)c1ccc2cccc(NS(=O)(=O)c3ccc(C(F)(F)F)cc3)c2n1
IC50 [1]: 0.75 µM

O=C(O)c1ccc2c(I)cc(I)c(NS(=O)(=O)c3ccccc3)c2n1
IC50 [1]: > 1000 µM

O=C(O)c1ccc2cccc(NS(=O)(=O)c3ccc(C(F)(F)F)cc3[N+](=O)[O-])c2n1
inhibition [2]: < 5%
IC50 [3]: 1.5 µM
inhibition [4]: < 5%
IC50 [5]: 0.24 µM
Ratio Ki [8]: 3
IC50 [6]: 0.38 µM
Ki [9]: 0.6 µM
IC50 [1]: 0.37 µM
inhibition [7]: > 90%

O=C(O)c1cc(-c2cccc(F)c2)c2cccc(NS(=O)(=O)c3ccccn3)c2n1
IC50 [1]: 0.37 µM

O=C(O)c1ccc2cccc(NS(=O)(=O)c3cccc4cccnc34)c2n1
Ratio Ki [8]: 50
Ki [9]: 20.7 µM
IC50 [1]: 0.83 µM
inhibition [7]: > 90%

O=C(NOCc1ccccc1)c1ccc2cccc(O)c2n1
IC50 [5]: 25.2 µM
IC50 [1]: 11.2 µM

Cc1ccc(S(=O)(=O)Nc2cccc3ccc(C(=O)O)nc23)cc1
IC50 [1]: 1.41 µM

CONC(=O)c1cccc(C(=O)NOC)n1
IC50 [1]: 84.3 µM

COC(=O)c1ccc2cccc(NS(C)(=O)=O)c2n1
IC50 [1]: 17.6 µM

O=C(O)c1ccc2cccc(NS(=O)(=O)c3cccc(F)c3)c2n1
IC50 [1]: 0.68 µM

CS(=O)(=O)Nc1c(Cl)cc(Cl)c2ccc(C(=O)O)nc12
IC50 [1]: > 1000 µM

O=C(O)c1ccc2c(Cl)cc(I)c(O)c2n1
IC50 [1]: 0.48 µM

CS(=O)(=O)Nc1cccc2c(Cl)cc(C(=O)O)nc12
inhibition [2]: < 5%
IC50 [3]: 21.1 µM
inhibition [4]: < 5%
IC50 [5]: 8.11 µM
IC50 [6]: 0.47 µM
IC50 [1]: 1 µM
inhibition [7]: 90%

CONC(=O)c1ccc2cccc(O)c2n1
IC50 [1]: 13.7 µM

O=C(O)c1cccc(C(=O)NOCc2ccccc2)n1
IC50 [1]: 22.7 µM

CS(=O)(=O)Nc1ccc(-c2cccc(N)c2)c2ccc(C(=O)O)nc12
inhibition [2]: < 5%
inhibition [4]: < 5%
IC50 [1]: 2.1 µM
inhibition [7]: 95%

Oc1cccc2ccc(-c3ccccc3)nc12
IC50 [1]: > 1000 µM

O=C(O)c1ccccn1 [2-PICOLINIC ACID]
IC50 [1]: 303 µM

CS(=O)(=O)Nc1cc(Cl)c(Cl)c2ccc(C(=O)O)nc12
inhibition [2]: < 5%
IC50 [3]: 11.2 µM
inhibition [4]: < 5%
IC50 [5]: 5.23 µM
IC50 [6]: 0.47 µM
IC50 [1]: 0.95 µM
inhibition [7]: 91%

O=C(O)c1ccc2cccc(NS(=O)(=O)c3ccccc3)c2n1
inhibition [2]: < 5%
IC50 [3]: 3.07 µM
inhibition [4]: < 5%
IC50 [5]: 1.22 µM
Ratio Ki [8]: 6
IC50 [6]: 0.43 µM
Ki [9]: 2.12 µM
IC50 [1]: 0.71 µM
inhibition [7]: > 90%

CONC(=O)c1ccccn1
IC50 [1]: 1240 µM

O=C(NO)c1cccc(C(=O)NO)n1
IC50 [1]: > 1000 µM

N#Cc1ccccc1S(=O)(=O)Nc1cccc2ccc(C(=O)O)nc12
IC50 [1]: 0.47 µM

O=C(O)c1cccc(C(=O)O)n1 [DIPICOLINIC ACID]
inhibition [2]: < 5%
IC50 [3]: 15.6 µM
inhibition [4]: < 5%
IC50 [5]: 9.75 µM
IC50 [6]: 0.45 µM
IC50 [1]: 7 µM
inhibition [7]: < 5%

O=C([O-])CN(CCN(CC(=O)[O-])CC(=O)O)CC(=O)O.[Na+].[Na+]
inhibition [2]: < 5%
inhibition [4]: < 5%
inhibition [7]: 23%

CONC(=O)c1cccc(C(=O)O)n1
IC50 [1]: 27.8 µM

CS(=O)(=O)Nc1ccc(I)c2ccc(C(=O)O)nc12
inhibition [2]: < 5%
inhibition [4]: < 5%
IC50 [1]: 1.4 µM
inhibition [7]: 94%
